This note sets out measurements from PMC6278366, “Synthesis and Evaluation of Anticancer Activities of Novel C-28 Guanidine-Functionalized Triterpene Acid Derivatives” (Molecules, 2018).

The test system of series [1] is HeLa (cervical cancer) cells. The experiment in a line: Cytotoxicity assay (7-AAD viability, flow cytometry), HeLa. It is filed as cell-based, human. The following applies: mean ± SE, at least three experiments in duplicate, viable cells. Here is the method: (§1) Cells (Jurkat, K562, U937, HeLa, HEK293 and normal Fibroblasts) were purchased from Russian Cell Culture Collection (Institute of Cytology of the Russian Academy of Sciences, Saint Petersburg, Russia) and cultured according to standard mammalian tissue culture protocols and sterile technique. Human cell lines HEK293 and HeLa were obtained from the HPA Culture Collections (Salisbury, UK). All cell lines used in the study were tested and shown to be free of mycoplasma and viral contamination.
(§2) HEK293, HeLa cell lines and fibroblasts were cultured as monolayers and maintained in Dulbecco’s modified Eagle’s medium (DMEM, Gibco BRL, Waltham, MA, USA) supplemented with 10% foetal bovine serum and 1% penicillin-streptomycin solution at 37 °C in a humidified incubator under a 5% CO2 atmosphere.
(§3) Cells were maintained in RPMI 1640 (Jurkat, K562, U937) (Gibco, Thermo Fisher Scientific, Waltham, MA, USA) supplemented with 4 mM glutamine, 10% FBS (Sigma, Burlington, MA, USA) and 100 units/mL penicillin-streptomycin (Sigma). All types of cells were grown in an atmosphere of 5% CO2 at 37 °C. The cells were subcultures at 2–3 days intervals. Adherent cells (HEK293, HeLa, fibroblasts) were suspended using trypsin/EDTA and counted after they have reached 80% confluency. Cells were then seeded in 24 well plates at 5 × 10^4 cells per well and incubated overnight. Jurkat, K562, U937 cells were subcultured at 2 day intervals with a seeding density of 1 × 10^5 cells per 24 well plates in RPMI with 10% FBS.
(§4) Viability (Live/dead) assessment was performed by staining cells with 7-AAD (7-Aminoactinomycin D) (Biolegend, San Diego, CA, USA). Cells were treated of test compounds with six different concentrations (1, 5, 10, 15, 30 and 60 μM). After treatment, cells were harvested, washed 1–2 times with phosphate-buffered saline (PBS) and centrifuged at 400× g for 5 min. Cell pellets were resuspended in 200 μL of flow cytometry staining buffer (PBS without Ca^2+ and Mg^2+, 2.5% FBS) and stained with 5 μL of 7-AAD staining solutionfor 15 min at room temperature in the dark. Samples were acquired on NovoCyteTM 2000 FlowCytometry System (ACEA, San Diego, CA, USA) equipped with 488 nm argon laser. Detection of 7-AAD emission was collected through a 675/30 nm filter in FL4 channel.

Series [2] relates to K562 (chronic myeloid leukemia) cells. The experiment in a line: Cytotoxicity assay (7-AAD viability, flow cytometry), K562. It counts as cell-based, human. The following applies: at least three experiments in duplicate, viable cells, read-out: IC50 K562. On the procedure:
as §1, §3, §4
(In general: Flow cytometry measures light scatter and fluorescence of single cells or particles in a stream.)

For series [3], the system named is U937 (histiocytic lymphoma) cells. Nature of the series: Cytotoxicity assay (7-AAD viability, flow cytometry), U937. It counts as cell-based, human. Conditions: at least three experiments in duplicate, viable cells, read-out: IC50 U937. On the procedure:
as §1, §3, §4

A further series concerns Jurkat cells. Nature of the series: Annexin V/7-AAD apoptosis assay by flow cytometry. It counts as cell-based, human. The following applies: 48 h; for early apoptotic cells (Q7-4) / late apoptotic cells (Q7-2) / necrotic cells (Q7-1) / living (vital) cells (Q7-3): at IC50 concentration (59 μM Dihydro BA; 4 μM 15, 15c, 18c; 8 μM 20c); for total number of apoptotic cells (early + late): at IC50 concentration (59 μM Dihydro BA; 4 μM 15c; 8 μM 20c). On the procedure:
Apoptosis was determined by flow cytometric analysis of Annexin V and 7-aminoactinomycin D staining. Briefly, 200 μL of Guava Nexin reagent (Millipore, Bedford, MA, USA) was added to 5 × 10^5 cells in 200 μL, and the cells were incubated with the reagent for 20 min at room temperature in the dark. […] At the end of incubation, the cells were analyzed on NovoCyteTM 2000 FlowCytometry System (ACEA). Different states of cell death were defined as follows: normal cells are localized in the lower-left quadrant (Annexin V^−/PI^−); early apoptotic cells are in the lower-right quadrant (Annexin V^+/PI^−); late apoptotic cells and necrotic cells are in the upper-right quadrant (Annexin V^+/PI^+); and necrotic cells are in the upper-left quadrant (Annexin V^−/PI^+).
Figure 2 AnnexinV/7-AAD staining upon induction of apoptosis in Jurkat cells. […] Then, the cells were harvested, stained with Annexin V/7-AAD and analyzed by flow cytometry. The experiments were performed three times, and the results of the representative experiments are shown. The first cytogram represents an untreated cell sample (A); after incubation with dihydrobetulinic acid for 24 h (B) and for 48 h (C); after incubation with compound 15 for 24 h (D) and for 48 h (E); after incubation with compound 15c for 24 h (F) and for 48 h (G); after incubation with compound 18c for 24 h (H) and for 48 h (I); after incubation with compound 20c for 24 h (J) and for 48 h (K). Q7-1, necrotic cells; Q7-2, late apoptotic cells; Q7-3, living cells; Q7-4, early apoptotic cells. TEXT PRINTED IN THE PICTURE: (B) Dihydro BA: Q7-1 0.96% (59 μM); Q7-2 12.11% (59 μM); Q7-3 80.09% (59 μM); Q7-4 6.84% (59 μM) | (C) Dihydro BA: Q7-1 2.34% (59 μM); Q7-2 20.53% (59 μM); Q7-3 73.11% (59 μM); Q7-4 4.02% (59 μM) | (D) Compound 15: Q7-1 3.08% (4 μM); Q7-2 2.24% (4 μM); Q7-3 92.34% (4 μM); Q7-4 2.34% (4 μM) | (E) Compound 15: Q7-1 5.53% (4 μM); Q7-2 91.79% (4 μM); Q7-3 0.58% (4 μM); Q7-4 2.10% (4 μM) | (F) Compound 15c: Q7-1 1.51% (4 μM); Q7-2 2.64% (4 μM); Q7-3 84.92% (4 μM); Q7-4 10.93% (4 μM) | (G) Compound 15c: Q7-1 21.72% (4 μM); Q7-2 16.54% (4 μM); Q7-3 54.49% (4 μM); Q7-4 7.25% (4 μM) | (H) Compound 18c: Q7-1 1.48% (4 μM); Q7-2 3.70% (4 μM); Q7-3 91.14% (4 μM); Q7-4 3.67% (4 μM) | (I) Compound 18c: Q7-1 20.73% (4 μM); Q7-2 14.32% (4 μM); Q7-3 58.16% (4 μM); Q7-4 6.79% (4 μM) | (J) Compound 20c: Q7-1 3.78% (8 μM); Q7-2 1.72% (8 μM); Q7-3 92.26% (8 μM); Q7-4 2.24% (8 μM) | (K) Compound 20c: Q7-1 6.09% (8 μM); Q7-2 7.35% (8 μM); Q7-3 78.36% (8 μM); Q7-4 8.20% (8 μM) DOUBTS OF THE COPYIST ABOUT THIS PICTURE: Panel A (Control, untreated cells: Q7-1 3.75%, Q7-2 0.00%, Q7-3 96.24%, Q7-4 0.01%) left out of lines because it is not a substance / Dihydro BA panel B, Q7-3: 80.09% partly overlaid by plot points, 80.09 or 80.03 / Dihydro BA panel C, Q7-3: 73.11% partly overlaid by plot points / Compound 18c panel I, Q7-3: 58.16% small print, 58.16 or 58.18 / Compound 15 panel E, Q7-3: 0.58% small print, 0.58 or 0.56

Series [4] concerns Jurkat (T-lymphoblastic leukemia) cells. The experiment in a line: cells. It counts as cell-based. Conditions: mean ± SE, at least three experiments in duplicate, viable cells, read-out: IC50 Jurkat. On the procedure: as §1, §3, §4
The test system of series [5] is HEK293 (embryonic kidney) cells. Nature of the series: Cytotoxicity assay (7-AAD viability, flow cytometry), HEK293. It counts as cell-based, human. The following applies: at least three experiments in duplicate, viable cells. On the procedure:
as §1, §2, §3, §4

The subject of the next series is normal human fibroblasts. Nature of the series: Cytotoxicity assay (7-AAD viability, flow cytometry), normal fibroblasts. It counts as cell-based. Conditions: mean ± SE, at least three experiments in duplicate. Here is the method:
as §1, §2, §3
as §4, with “Cells were treated of test compounds with six different concentrations (1, 5, 10, 15, 30 and 60 μM).” left out

For orientation: melting point means the temperature, or range, at which the solid turns liquid. The term IC50 denotes the concentration that inhibits the measured activity by half.

Structures can show the parent of a compound that is named as a salt. Where two headings read alike, the source gives them in different places.

For the compound `CC(=O)O[C@H]1CC[C@@]2(C)C(CC[C@]3(C)C2CCC2C4C(C(C)C)CC[C@]4(C(=O)NCCN(CCNC(=N)N)CCNC(=N)N)CC[C@]23C)C1(C)C` (single isomer, unassigned) (as salt: hydrochloride) [Compound 12b, 3β-N-[2-(N,N′-bis-Ethylgyanidine)-aminoethyl]-3-O-acetyl-lupane-28-amide dihydrochloride], the melting point lay in the range of 198 to 200 °C.
As for `CC(=O)O[C@H]1CC[C@@]2(C)C(CC[C@]3(C)C2CC=C2C4[C@@H](C)[C@H](C)CC[C@]4(C(=O)OCC(CO)(CO)NC(=N)N)CC[C@]23C)C1(C)C` (single isomer, unassigned) [Compound 18c, 3β-[2-Guanidine-3-hydroxy-2-(hydroxymethyl)propyl]-3-O-acetyl-urs-12-en-28-oate hydrochloride], the half-maximal inhibitory concentration (IC50) in series [1] is 12 ± 0.29 µM; in series [2] (mean ± SE), 11 ± 0.18 µM; in series [3] (mean ± SE), 5.3 ± 0.29 µM; in series [4] it was 3.8 ± 0.23 µM; in series [5] (mean ± SE), 14 ± 0.34 µM; in the series on normal human fibroblasts, 51 ± 0.26 µM. Besides, the “early apoptotic cells (Q7-4)” value with Jurkat cells is on record as 6.8%. In addition, the “late apoptotic cells (Q7-2)” value in the series on Jurkat cells stood at 14.3%. For the same compound, the “necrotic cells (Q7-1)” value with Jurkat cells is on record as 20.7%.
As for `CC(=O)O[C@H]1CC[C@@]2(C)C(CC[C@]3(C)C2CCC2C4C(C(C)C)CC[C@]4(C(=O)NCCNC(=N)N)CC[C@]23C)C1(C)C` (stereo partly drawn) (as salt: hydrochloride) [Compound 10b, 3β-N-(2-Ethylgyanidine)-3-O-acetyl-lupane-28-amide hydrochloride], the melting point is 192 to 194 °C.
Turning to `CC(=O)O[C@H]1CC[C@@]2(C)C(CC[C@]3(C)C2CC=C2C4CC(C)(C)CC[C@]4(C(=O)OCC(CO)(CO)NC(=N)N)CC[C@]23C)C1(C)C` (stereo partly drawn) [Compound 20c, 3β-[2-Guanidine-3-hydroxy-2-(hydroxymethyl)propyl]-3-O-acetyl-olean-12-en-28-oate hydrochloride], the IC50 in series [1] worked out at 17 ± 0.32 µM; in series [2] (mean ± SE), 13 ± 0.45 µM; in series [3] (mean ± SE), 6.8 ± 0.11 µM; in series [4], 7.6 ± 0.33 µM; in series [5] (mean ± SE), 19 ± 0.17 µM; with normal human fibroblasts, 54 ± 0.12 µM. The “living (vital) cells (Q7-3)” value in the series with Jurkat cells was 78.4%. Besides, the “necrotic cells (Q7-1)” value in the series with Jurkat cells came to 6.1%. For the same compound, the “total number of apoptotic cells (early + late)” value in the series with Jurkat cells is given as “about 15.5%”.
Consider `CC(=O)O[C@H]1CC[C@@]2(C)C(CC[C@]3(C)C2CCC2C4C(C(C)C)CC[C@]4(C(=O)NCCCN4CCN(CCCNC(=N)N)CC4)CC[C@]23C)C1(C)C` (stereo partly drawn) (as salt: trifluoroacetate) [Compound 13a, 3β-N-{[3-(3-Propylguanidine)piperazinyl]propyl}-3-O-acetyl-lupane-28-amide trifluoroacetate], for which the melting point lay within 92 to 94 °C.
Same read-out and setting: as for `CC(=O)O[C@H]1CC[C@@]2(C)C(CC[C@]3(C)C2CCC2C4C(C(C)C)CC[C@]4(C(=O)NCCN(CCNC(=N)N)CCNC(=N)N)CC[C@]23C)C1(C)C` (single isomer, unassigned) (as salt: trifluoroacetate) [Compound 12a, 3β-N-[2-(N,N′-bis-Ethylgyanidine)-aminoethyl]-3-O-acetyl-lupane-28-amide trifluoroacetate], the figure is 116 to 118 °C.
Regarding `CC(C)[C@@H]1CC[C@]2(C(=O)O)CC[C@]3(C)[C@H](CC[C@@H]4[C@@]5(C)CC[C@H](O)C(C)(C)[C@@H]5CC[C@]43C)[C@@H]12` [Dihydro BA, 20,29-dihydrobetulinic acid, reference compound], the IC50 in series [1] (Homo sapiens, HeLa) was 132 ± 0.47 µM; in series [2] (Homo sapiens, K562, mean ± SE), 44 ± 0.24 µM; in series [3] (Homo sapiens, U-937, mean ± SE), 39 ± 0.38 µM; in series [4] (Homo sapiens, Jurkat), 59 ± 0.31 µM; in series [5] (Homo sapiens, HEK293, mean ± SE), 128 ± 0.32 µM; in the series on normal human fibroblasts (Homo sapiens, Fibroblast), 517 ± 0.26 µM. The “early apoptotic cells (Q7-4)” value in the series on Jurkat cells was found to be 4.0%. For the same compound, the “late apoptotic cells (Q7-2)” value in the series on Jurkat cells was determined as 20.5%. For the same compound, the “living (vital) cells (Q7-3)” value in the series on Jurkat cells is listed as 73.1%. Besides, the “total number of apoptotic cells (early + late)” value in the series on Jurkat cells is on record as “around 24%”.
